# Measurements reported in US8658661B2, “Oxadiazole inhibitors of leukotriene production” (Boehringer Ingelheim International GmbH, priority 2010, dated 2014).
# Like-named read-outs stand apart in the source and are kept apart here.
# Experiments:
# [1] = test system: synthesis of LTB4 in human whole blood; assay: Human whole blood assay (inhibition of LTB4 synthesis, calcimycin stimulated); format: cell-based; conditions: heparinized human whole blood, calcimycin 20 μM, plasma LTB4
# Method in brief: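 LTB4 levels in plasma were measured by antibody-based HTRF after heparinized human whole blood, pretreated with compound (15 min, 37° C), was challenged with 20 μM calcimycin for 30 min at 37° C.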
# [2] = molecular target: T1, recombinant human FLAP protein (Homo sapiens, UniProt P20292); assay: FLAP binding assay (SPA, displacement of [125I]L-691,831)
# T1 construct: made in house; host or cells: Sf9 insect cells (100,000×g membrane pellet used)
# T1 sequence (P20292 1-161): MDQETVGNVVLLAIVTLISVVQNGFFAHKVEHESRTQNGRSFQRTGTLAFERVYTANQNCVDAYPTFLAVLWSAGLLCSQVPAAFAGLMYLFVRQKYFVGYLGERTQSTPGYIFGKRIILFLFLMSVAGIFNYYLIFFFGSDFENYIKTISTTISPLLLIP
# Method in brief: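 Membranes from sf9 cells expressing human FLAP in pH 7.5 Tris buffer (MgCl2, EDTA, PMSF). Non-specific binding defined with 10 μM cold L-691,831.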
# [3] = membranes of sf9 cells expressing recombinant human FLAP, [125I]L-691,831 probe, read-out: FLAP binding IC50
IC50 [1] [nM],"IC50 [2, 3] [nM]",SMILES,IC50 [2] [nM]
210,6.6,"Cn1cc(-c2nc(C(C)(c3ccc(-c4cnc(N)nc4)cc3)C3CCC3)no2)cn1 (stereo not shown) [Example 33, 5-(4-{1-cyclobutyl-1-[5-(1-methyl-1H-pyrazol-4-yl)-1,2,4-oxadiazol-3-yl]ethyl}phenyl)pyrimidin-2-amine]",
360,3.2,"CC(C)(O)CNc1cnc(-c2nc(C(C)(c3ccc(-c4cnc(N)nc4)cc3)C3CCC3)no2)cn1 (stereo not shown) [Example 35, 1-{[5-(3-{1-[4-(2-aminopyrimidin-5-yl)phenyl]-1-cyclobutylethyl}-1,2,4-oxadiazol-5-yl)pyrazin-2-yl]amino}-2-methylpropan-2-ol]",
39,5.5,"COCCn1cc(-c2nc([C@@](C)(c3ccc(-c4ccc(N)nc4)cc3)C3CC3)no2)cn1 [Example 183, 5-[4-((R)-1-Cyclopropyl-1-{5-[1-(2-methoxy-ethyl)-1H-pyrazol-4-yl]-[1,2,4]oxadiazol-3-yl}-ethyl)-phenyl]-pyridin-2-ylamine]",
190,5.3,"Cc1ccc(-c2nc(C(C)(c3ccc(-c4cnc(N)nc4)cc3)C3CC3)no2)cn1 (stereo not shown) [Example 29, 5-(4-{1-cyclopropyl-1-[5-(6-methylpyridin-3-yl)-1,2,4-oxadiazol-3-yl]ethyl}phenyl)pyrimidin-2-amine]",
28,3.6,"C[C@@](c1ccc(-c2cnc(N)nc2)cc1)(c1noc(-c2cnn(CCN3CCCC3)c2)n1)C1CC1 [Example 215, 5-[4-((R)-1-Cyclopropyl-1-{5-[1-(2-pyrrolidin-1-yl-ethyl)-1H-pyrazol-4-yl]-[1,2,4]oxadiazol-3-yl}-ethyl)-phenyl]-pyrimidin-2-ylamine]",
23,17,"Cc1nc(-c2ccc([C@](C)(c3noc(-c4cnn(C)c4)n3)C3CC3)cc2)cnc1N [Example 187, 5-(4-{(R)-1-Cyclopropyl-1-[5-(1-methyl-1H-pyrazol-4-yl)-[1,2,4]oxadiazol-3-yl]-ethyl}-phenyl)-3-methyl-pyrazin-2-ylamine]",
140,4,"CNC(=O)Cn1cc(-c2nc(C(C)(c3ccc(-c4cnc(N)nc4)cc3)C3CC3)no2)cn1 (stereo not shown) [Example 60, 2-[4-(3-{1-[4-(2-aminopyrimidin-5-yl)phenyl]-1-cyclopropylethyl}-1,2,4-oxadiazol-5-yl)-1H-pyrazol-1-yl]-N-methylacetamide]",
120,3.8,"Cn1cc(-c2nc(C(C)(c3ccc(-c4cnc5[nH]ccc5c4)cc3)C3CC3)no2)cn1 (stereo not shown) [Example 253, 5-(4-{1-Cyclopropyl-1-[5-(1-methyl-1H-pyrazol-4-yl)-[1,2,4]oxadiazol-3-yl]-ethyl}-phenyl)-1H-pyrrolo[2,3-b]pyridine]",
79,2.4,"CC(C)(CO)Nc1cnc(-c2nc([C@@](C)(c3ccc(-c4cnc(N)nc4)cc3)C3CC3)no2)cn1 (single isomer, unassigned) [Example 56]",
27,2.6,"C[C@@](c1ccc(-c2cnc(N)nc2)cc1)(c1noc(-c2cnn(C3COC3)c2)n1)C1CC1 [Example 54, 5-{4-[(1R)-1-cyclopropyl-1-{5-[1-(oxetan-3-yl)-1H-pyrazol-4-yl]-1,2,4-oxadiazol-3-yl}ethyl]phenyl}pyrimidin-2-amine]",

# The remaining lines, values behind:
SMILES,IC50 [1] [nM],"IC50 [2, 3] [nM]",IC50 [2] [nM]
"CC(C)C(C)(c1ccc(-c2cnc(N)nc2)cc1)c1noc(C2CCCCC2)n1 (stereo not shown) [Example 119, 5-{4-[2-(5-cyclohexyl-1,2,4-oxadiazol-3-yl)-3-methylbutan-2-yl]phenyl}pyrimidin-2-amine]",900,9.2,
"COCCn1cc(-c2nc([C@](C)(c3ccc(-c4cnc(N)nc4)cc3)C(C)C)no2)cn1 [Example 64, 5-{4-[(2S)-2-{5-[1-(2-methoxyethyl)-1H-pyrazol-4-yl]-1,2,4-oxadiazol-3-yl}-3-methylbutan-2-yl]phenyl}pyrimidin-2-amine]",410,16,
"CC(C)C(C)(c1ccc(-c2cnc(N)nc2)cc1)c1noc(-c2ccc(C#N)nc2)n1 (stereo not shown) [Example 128, 5-(3-{2-[4-(2-aminopyrimidin-5-yl)phenyl]-3-methylbutan-2-yl}-1,2,4-oxadiazol-5-yl)pyridine-2-carbonitrile]",240,1.6,
"CC(C)C(C)(c1ccc(-c2cnc(N)nc2)cc1)c1noc(-c2cncc3ccccc23)n1 (stereo not shown) [Example 127, 5-(4-{2-[5-(isoquinolin-4-yl)-1,2,4-oxadiazol-3-yl]-3-methylbutan-2-yl}phenyl)pyrimidin-2-amine]",650,2.9,
"Cc1ncc(-c2nc(C(C)(c3ccc(-c4cnc(N)nc4)cc3)C(C)C)no2)cn1 (stereo not shown) [Example 152, 5-(4-{3-methyl-2-[5-(2-methylpyrimidin-5-yl)-1,2,4-oxadiazol-3-yl]butan-2-yl}phenyl)pyrimidin-2-amine]",270,3.3,
"CC(C)C(C)(c1ccc(-c2cnc(N)nc2)cc1)c1noc(NCC(C)(C)O)n1 (stereo not shown) [Example 82, 1-[(3-{2-[4-(2-aminopyrimidin-5-yl)phenyl]-3-methylbutan-2-yl}-1,2,4-oxadiazol-5-yl)amino]-2-methylpropan-2-ol]",220,13,
"CC(C)C(C)(c1ccc(-c2cnc(N)nc2)cc1)c1noc(-c2cnn(C)c2)n1 (stereo not shown) [Example 15, 5-(4-{3-methyl-2-[5-(1-methyl-1H-pyrazol-4-yl)-1,2,4-oxadiazol-3-yl]butan-2-yl}1phenyl)pyrimidin-2-amine]",46,2,
"Cc1ncccc1-c1nc(C(C)(c2ccc(-c3cnc(N)nc3)cc2)C(C)C)no1 (stereo not shown) [Example 5, 5-(4-{3-methyl-2-[5-(2-methylpyridin-3-yl)-1,2,4-oxadiazol-3-yl]butan-2-yl}phenyl)pyrimidin-2-amine]",150,1.6,
"CC(C)C(C)(c1ccc(-c2cnc(N)nc2)cc1)c1noc(C2(C)CC2)n1 (stereo not shown) [Example 118, 5-(4-{3-methyl-2-[5-(1-methylcyclopropyl)-1,2,4-oxadiazol-3-yl]butan-2-yl}phenyl)pyrimidin-2-amine]",820,9.9,
"CC(C)C(C)(c1ccc(-c2cnc(N)nc2)cc1)c1noc(-c2cnc(N3CCN(C)CC3)cn2)n1 (stereo not shown) [Example 163, 5-[4-(3-methyl-2-{5-[5-(4-methylpiperazin-1-yl)pyrazin-2-yl]-1,2,4-oxadiazol-3-yl}butan-2-yl)phenyl]pyrimidin-2-amine]",30,0.74,
"CC(C)(c1ccc(-c2cnc(N)nc2)cc1)c1noc(-c2cn[nH]c2)n1 [Example 69, 5-(4-{2-[5-(1H-pyrazol-4-yl)-1,2,4-oxadiazol-3-yl]propan-2-yl}phenyl)pyrimidin-2-amine]",120,7.7,
"CC(C)[C@](C)(c1ccc(-c2cnc(N)nc2)cc1)c1noc(-c2cnn(C)c2)n1 (single isomer, unassigned) [Example 46]",33,,1.6
"CN(C)C(=O)Cn1cc(-c2nc(C(C)(c3ccc(-c4ccc(N)nc4F)cc3)C3CC3)no2)cn1 (stereo not shown) [Example 278, 2-[4-(3-{1-[4-(6-Amino-2-fluoro-pyridin-3-yl)-phenyl]-1-cyclopropyl-ethyl}-[1,2,4]oxadiazol-5-yl)-pyrazol-1-yl]-N,N-dimethyl-acetamide]",150,5,
